Holding throughout (assay): NCI anticancer screen, dose series, 48 h
The test system of test [1] is SK-MEL-2.
Test [2] has as its system SN12C.
Test [3] relates to SK-OV-3.
Test [4] concerns HT-29.
Test [5] deals with IGROV-1.
Test [6] relates to SNB-19.
Test [7] has as its system SW-620.
For test [8], the system named is HCT-15.
For test [9], the system named is A549.
For test [10], the system named is NCI-H23.
Test [11] deals with MDA-MB-231.
Test [12] relates to HOP-62.
Test [13] relates to DU-145.
The subject of test [14] is COLO 205.
The test system of test [15] is SNB-75.
Test [16] has as its system M14.
Test [17] deals with HL-60.
Test [18] concerns RXF 393.
Test [19] deals with T47D.

The values below come from ChEMBL document CHEMBL1201862, “PubChem BioAssay data set” (2004).

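Values below derive from 48-hour exposures of cells grown in 96-well plates, with endpoints linearly interpolated between the two concentrations bracketing the appropriate inhibition level. GI50: concentration for 50% inhibition of growth.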 Active and inactive are the calls of the source. Cut-off read from the data, not from the text of the source: active = GI50 up to about 1.1 µM and inactive = higher. Bounds are passed on as bounds.

Take `CCOC(=O)C12OC(OCC)(CC1(OCC)OCC)C1(CC1)C2=O` (stereo not drawn): the GI50 in [1], in test [2], in test [3], in [4], in [5] and in test [6] was > 100 µM (inactive) throughout. Moreover, the GI50 in test [7] was > 100 µM (inactive); in [8] it was over 100 µM; in test [9] it was > 100 µM (inactive); in test [10], > 100 µM (inactive); in test [11], > 100 µM (inactive); in test [12], > 100 µM (inactive). The GI50 in test [13], in test [14], in test [15] and in test [16] was > 100 µM (inactive) each time.

As for `CN(C)c1ccc(/C=C/C=C\c2cc(/C=C/C=C/c3ccc(N(C)C)cc3)[s+]c3ccccc23)cc1.[O-][Cl+3]([O-])([O-])[O-]`, the GI50 is 45.2 µM (inactive) in [1]; > 100 µM (inactive) in test [2]; 43.7 µM (inactive) in test [3]; > 100 µM (inactive) in [4]; > 100 µM (inactive) in test [6]; 4.53 µM (inactive) in test [17]. For the same compound, the GI50 in [7] is 63.4 µM (inactive); in test [8], 80.7 µM; in test [9] it was > 100 µM (inactive); in test [10] it was 10 µM (inactive); in [18], 13.1 µM (inactive); in test [12], > 100 µM (inactive). Besides, the GI50 is 29.3 µM (inactive) in test [14], > 100 µM (inactive) in test [15] and 14.5 µM (inactive) in test [16].

Turning to `O=C(CC(=O)C1CCOC1=O)C(=O)Nc1cccc(Cl)c1` (stereo not drawn), the GI50 in [1], in [2], in test [3], in [4], in test [5] and in [6] was > 100 µM (inactive) each time. Also, the GI50 in test [17] is > 100 µM (inactive); in test [7], > 100 µM (inactive); in test [8] it was over 100 µM; in [9] it was > 100 µM (inactive); in [10], > 100 µM (inactive); in test [18], > 100 µM (inactive). Further, the GI50 in [12], in test [14], in test [15] and in test [16] was > 100 µM (inactive) throughout.

As for `Cc1cc(C)[n+](CCOc2ccc(/C(=C(/Cl)c3ccccc3)c3ccccc3)cc2)c(C)c1.[O-][Cl+3]([O-])([O-])[O-]`, the GI50 is 0.865 µM (active) in test [1]; 0.774 µM (active) in test [2]; 1.25 µM (inactive) in test [3]; 0.809 µM (active) in [4]; 0.612 µM (active) in test [5]; 0.865 µM (active) in test [6]. In addition, the GI50 in [17] was 0.215 µM (active); in test [7] it was 0.891 µM (active); in test [8], 13.4 µM; in test [9] it was 1.55 µM (inactive); in test [10], 0.869 µM (active); in test [18], 2.49 µM (inactive). The GI50 was 2.37 µM (inactive) in test [12], 0.292 µM (active) in test [14], 0.697 µM (active) in test [15] and 2 µM (inactive) in test [16].

`CC(=O)C(CN(Cc1ccccc1)Cc1ccccc1)C(c1ccccc1)c1c(O)c2ccccc2oc1=O` (stereo not drawn): the GI50 in [1], in test [2], in test [3], in test [4], in [5] and in test [6] was > 100 µM (inactive) in each case. In addition, the GI50 was > 100 µM (inactive) in test [17]; 71.4 µM (inactive) in test [7]; over 100 µM in test [8]; > 100 µM (inactive) in test [9]; > 100 µM (inactive) in [10]; > 100 µM (inactive) in test [18]. Further, the GI50 in test [12], in test [15] and in test [16] was > 100 µM (inactive) each time.

In the case of `COC(=O)C(C(=O)C(N)=O)c1csc(-n2nc(-c3ccccc3)cc2-c2ccccc2)n1` (stereo not drawn), the GI50 is > 31.6 µM (inactive) in test [1]; > 10 µM (inactive) in [2]; > 31.6 µM (inactive) in test [3]; 41.9 µM (inactive) in test [4]; 17.3 µM (inactive) in test [5]; 12.5 µM (inactive) in test [6]. Moreover, the GI50 is 26.1 µM (inactive) in [17]; 4.4 µM (inactive) in test [7]; over 31.6 µM in [8]; > 31.6 µM (inactive) in [9]; > 100 µM (inactive) in [10]; > 31.6 µM (inactive) in test [18]. The GI50 is > 10 µM (inactive) in [12], 26.8 µM (inactive) in [14], > 31.6 µM (inactive) in [15] and > 31.6 µM (inactive) in test [16].

In the case of `COc1cc2c3c(c1OC)C1(C=CC(=O)C=C1)CC3N(C(=O)OC(C)(C)C(Cl)(Cl)Cl)CC2` (stereo not drawn), the GI50 in test [1] was 11 µM (inactive); in test [2] it was 11.6 µM (inactive); in [3], 26.2 µM (inactive); in test [4], 8.53 µM (inactive); in [5], 16.6 µM (inactive); in [6], 14.9 µM (inactive). In addition, the GI50 in test [17] was 1.95 µM (inactive); in [7], 18.3 µM (inactive); in test [8], 7.52 µM; in test [9] it was 10.5 µM (inactive); in test [10], 16.4 µM (inactive); in test [18], 4.16 µM (inactive). Further, the GI50 is 17.6 µM (inactive) in test [12], 12.4 µM (inactive) in test [14], 15.1 µM (inactive) in test [15] and 14.5 µM (inactive) in test [16].

As to `[N-]=[N+]=Nc1cc(=O)oc2ccccc12`, the GI50 in test [1], in [2], in test [3], in test [4], in [5] and in [17] was > 100 µM (inactive) each time. The GI50 in test [7] is > 100 µM (inactive); in test [8], over 100 µM; in test [9], > 100 µM (inactive); in test [10], > 100 µM (inactive); in [18], > 100 µM (inactive); in [12] it was > 100 µM (inactive). Also, the GI50 in test [14], in test [15] and in test [16] was > 100 µM (inactive) in each case.

Consider `COc1ccc2ccccc2c1C1=NC(C)(C)CO1`, for which the GI50 in test [1], in test [2], in [3], in test [4], in test [5] and in test [6] was > 100 µM (inactive) each time. The GI50 in test [17] is > 100 µM (inactive); in [7], > 100 µM (inactive); in test [8], over 100 µM; in [9], > 100 µM (inactive); in [10] it was > 100 µM (inactive); in test [18], > 100 µM (inactive). For the same compound, the GI50 in test [12], in test [14], in test [15] and in [16] was > 100 µM (inactive) throughout.

Consider `COc1cc2c(oc(=O)c3cc4ccoc4c(OC)c32)c2cccc(O)c12`, for which the GI50 in [1], in test [2], in test [3], in [4], in test [5] and in [6] was > 100 µM (inactive) each time. Moreover, the GI50 in test [17] is > 100 µM (inactive); in test [7], > 100 µM (inactive); in test [8], over 100 µM; in [9], > 100 µM (inactive); in test [10] it was > 100 µM (inactive); in [18], > 100 µM (inactive). Also, the GI50 was > 100 µM (inactive) in [12], > 100 µM (inactive) in test [14], 60.3 µM (inactive) in test [15] and > 100 µM (inactive) in test [16].

For `COc1cccc2c1OCC1Cc3ccccc3OC21` (stereo not drawn), the GI50 in test [1] is 35.4 µM (inactive); in test [2], 27.7 µM (inactive); in [3], 92.3 µM (inactive); in test [4], 57.4 µM (inactive); in test [5] it was > 100 µM (inactive); in test [7] it was 41.8 µM (inactive). Also, the GI50 in [8] was 43 µM; in [9], 35.1 µM (inactive); in test [10], 42.4 µM (inactive); in test [11], 31 µM (inactive); in test [12] it was 36.2 µM (inactive); in [13], 49.8 µM (inactive). In addition, the GI50 in test [14] was 32.2 µM (inactive); in test [19], 35.2 µM (inactive); in [16] it was 44 µM (inactive).

Turning to `O=S(=O)(/C=C/c1ccc(F)cc1)Cc1ccc(CS(=O)(=O)/C=C/c2ccc(F)cc2)cc1`, the GI50 in [1], in test [2], in test [3], in test [4], in [5] and in [6] was > 100 µM (inactive) in each case. The GI50 is > 100 µM (inactive) in test [17]; > 100 µM (inactive) in test [7]; over 100 µM in test [8]; > 100 µM (inactive) in test [9]; > 100 µM (inactive) in test [10]; > 100 µM (inactive) in [18]. In addition, the GI50 in test [12], in [14], in [15] and in [16] was > 100 µM (inactive) throughout.

In the case of `CCC1CCc2c(c(=O)oc3c2cc(OC)c2cccc(OC)c23)C1` (stereo not drawn), the GI50 was > 100 µM (inactive) in test [1]; > 100 µM (inactive) in test [2]; > 100 µM (inactive) in test [3]; 33.4 µM (inactive) in test [4]; > 100 µM (inactive) in test [5]; > 100 µM (inactive) in [6]. In addition, the GI50 in test [17] is 17.5 µM (inactive); in test [8], over 100 µM; in test [9] it was 71 µM (inactive); in test [10], 57.1 µM (inactive); in [18] it was 21.7 µM (inactive); in test [12] it was 60.5 µM (inactive). Moreover, the GI50 in [14] is > 100 µM (inactive); in [15] it was 55.8 µM (inactive); in [16] it was > 100 µM (inactive).
